Measurements from patent US11370794B2, “Toll-like receptor antagonist compounds and methods of use” (Dynavax Technologies Corporation, priority 2016, dated 2022).
Read-outs that look alike come from different tables or passages of the source.

Legend:
[1] = target: T1, human TLR8 (Homo sapiens, UniProt Q9NR97); experiment: Inhibition of human TLR8 in human monocytes (TNF-alpha / IL-1 beta ELISA); assay type: cell-based; details: for IC50: human monocytes, agonist ORN8L 100 μg/mL, 24 hours; for inhibits TLR8-dependent responses (in words): summary statement of the description
T1 construct: endogenous in cells; host or cells: primary human monocytes (CD14 microbeads) from buffy coats of healthy donors
T1 sequence (Q9NR97 27-1041): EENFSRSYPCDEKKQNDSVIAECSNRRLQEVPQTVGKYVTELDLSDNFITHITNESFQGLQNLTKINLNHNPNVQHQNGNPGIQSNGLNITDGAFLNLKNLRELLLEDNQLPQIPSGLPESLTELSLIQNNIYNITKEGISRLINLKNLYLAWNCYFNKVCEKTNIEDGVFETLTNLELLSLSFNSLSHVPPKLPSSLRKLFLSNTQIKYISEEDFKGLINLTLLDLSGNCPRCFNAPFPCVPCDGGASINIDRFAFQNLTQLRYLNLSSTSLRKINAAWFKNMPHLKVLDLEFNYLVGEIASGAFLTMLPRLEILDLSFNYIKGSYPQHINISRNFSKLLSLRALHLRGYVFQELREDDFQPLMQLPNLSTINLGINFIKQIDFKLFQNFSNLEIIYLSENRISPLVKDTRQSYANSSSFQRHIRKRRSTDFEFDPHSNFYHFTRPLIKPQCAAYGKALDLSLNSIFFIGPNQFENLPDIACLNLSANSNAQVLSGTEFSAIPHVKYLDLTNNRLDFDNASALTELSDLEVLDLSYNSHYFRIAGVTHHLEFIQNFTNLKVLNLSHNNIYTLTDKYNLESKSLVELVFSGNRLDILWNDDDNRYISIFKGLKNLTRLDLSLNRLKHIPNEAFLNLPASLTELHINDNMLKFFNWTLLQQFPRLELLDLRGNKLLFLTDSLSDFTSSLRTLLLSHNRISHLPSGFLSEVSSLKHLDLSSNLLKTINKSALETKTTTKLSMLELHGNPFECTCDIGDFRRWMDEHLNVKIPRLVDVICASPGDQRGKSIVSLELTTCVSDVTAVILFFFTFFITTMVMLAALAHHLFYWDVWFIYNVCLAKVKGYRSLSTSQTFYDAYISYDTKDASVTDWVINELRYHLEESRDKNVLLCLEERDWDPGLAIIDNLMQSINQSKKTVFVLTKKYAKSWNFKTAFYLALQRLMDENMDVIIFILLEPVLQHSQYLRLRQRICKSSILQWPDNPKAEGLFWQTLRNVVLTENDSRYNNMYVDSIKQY
In short: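 Primary human monocytes from donor buffy coats (~200,000 cells/well) given serially diluted compound, then ORN8L RNA oligonucleotide agonist at 100 μg/mL final. After 24 h at 37 °C, supernatant TNF-alpha and/or IL-1 beta measured by ELISA; IC50 from the concentration-response of cytokine release.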

[2] = Plasma stability in human plasma; assay type: in vitro ADME; details: plasma (90%); 90% human plasma, 2 μM compound, 37° C., 0-60 minutes; read-out: T1/2 in human plasma
Experimental: Example B6—Plasma Stability
The stability of compounds in human plasma was tested. Human plasma was spiked with compound to final concentration of 90% plasma and 2 μM compound. Samples were incubated for 0, 5, 15, 30, 45 and 60 minutes at 37° C. The reaction was stopped by the addition of acetonitrile. An aliquot of the stopped reaction was mixed with ultra-pure water (Millipore, ZMQS50F01) and analyzed by liquid chromatography/electrospray ionization mass spectroscopy.

[3] = Metabolic stability in human liver microsomes; assay type: in vitro ADME; details: 0.5 mg/mL microsomal protein, 1.5 μM compound, 37° C.; for half-life at 1.5 μM: 0-45 minutes, read-out: T1/2 in human liver microsomes
Experimental: Example B7—Metabolic Stability
The stability of compounds in human liver microsomes was tested. Human liver microsomes (from BD Gentest) were spiked with compounds to a final liver microsomal protein concentration of 0.5 mg/mL and a final compound concentration of 1.5 μM. Samples were incubated for 0, 5, 15, 30, 45 minutes at 37° C. The reaction was stopped by the addition of acetonitrile. An aliquot of the stopped reaction was mixed with ultra-pure water (Millipore, ZMQS50F01) and analyzed by liquid chromatography/electrospray ionization mass spectroscopy.

[4] = IL-1 beta readout, read-out: Human TLR8 IC50 IL-1b
[5] = TNF-alpha readout, read-out: Human TLR8 IC50 TNF-a

Structure (SMILES)	IC50 [1, 4] [µM]	IC50 [1, 5] [µM]	inhibits TLR8-dependent responses (in words) [1]	half-life at 2 μM [2] [h]	CLint scaled at 1.5 μM [3] [L/h/kg]	half-life at 1.5 μM [3] [h]
Cc1ccc(-n2nc3c(N4CCC(C(=O)NCC(C)(C)CNc5ccccc5)CC4)nnc(C)c3c2C)cc1 [2-1]	9.92	9.77				
Cc1ccc(-n2nc3c(N4CCC(C(=O)NCCCN(C)Cc5ccccc5)CC4)nnc(C)c3c2C)cc1 [Compound No. 1, N-(3-(benzyl(methyl)amino)propyl)-1-(3,4-dimethyl-2-(p-tolyl)-2H-pyrazolo[3,4-d]pyridazin-7-yl)piperidine-4-carboxamide]	0.74	0.62	inhibit	3.74	20.8	0.0833
Cc1ccc(-n2nc3c(N4CCC(C(=O)N5CCN(Cc6ccccc6)CC5)CC4)nnc(C)c3c2C)cc1 [Compound No. 2, (4-benzylpiperazin-1-yl)(1-(3,4-dimethyl-2-(p-tolyl)-2H-pyrazolo[3,4-d]pyridazin-7-yl)piperidin-4-yl)methanone]	0.9	0.67	inhibit			
Cc1ccc(-n2nc3c(N4CCC(C(=O)NC5CN(C)C5)CC4)nnc(C)c3c2C)cc1 [Compound No. 3, 1-(3,4-dimethyl-2-(p-tolyl)-2H-pyrazolo[3,4-d]pyridazin-7-yl)-N-(1-methylazetidin-3-yl)piperidine-4-carboxamide]	> 10	> 10		3.45	0.27	6.4
Cc1ccc(-n2nc3c(N4CCC(C(=O)NC5CN(Cc6ccccc6)C5)CC4)nnc(C)c3c2C)cc1 [Compound No. 4, N-(1-benzylazetidin-3-yl)-1-(3,4-dimethyl-2-(p-tolyl)-2H-pyrazolo[3,4-d]pyridazin-7-yl)piperidine-4-carboxamide]	1.01	0.77	inhibit			
Cc1ccc(-n2nc3c(N4CCC(C(=O)NCCCN(C)C)CC4)nnc(C)c3c2C)cc1 [Compound No. 5, 1-(3,4-dimethyl-2-(p-tolyl)-2H-pyrazolo[3,4-d]pyridazin-7-yl)-N-(3-(dimethylamino)propyl)piperidine-4-carboxamide]	> 10	> 10		17.9	0.132	13.3
Cc1ccc(-n2nc3c(N4CCC(C(=O)NCCCc5c[nH]cn5)CC4)nnc(C)c3c2C)cc1 [Compound No. 6, N-(3-(1H-imidazol-4-yl)propyl)-1-(3,4-dimethyl-2-(p-tolyl)-2H-pyrazolo[3,4-d]pyridazin-7-yl)piperidine-4-carboxamide]	> 10	6.68				
Cc1ccc(-n2nc3c(N4CCC(CCC(=O)NCCN(C)C)CC4)nnc(C)c3c2C)cc1 [Compound No. 9, 3-(1-(3,4-dimethyl-2-(p-tolyl)-2H-pyrazolo[3,4-d]pyridazin-7-yl)piperidin-4-yl)-N-(2-(dimethylamino)ethyl)propanamide]	5.02	1.22				
